Reference: PubChem BioAssay AID328 (DTP/NCI, 2004)
Where “and” joins values, the source holds several entries; their conditions need not be identical. Identical values can stand only once. Inconclusive results and toxic doses are left out. Non-standard residues stand in square brackets, D forms with d. Residues, ends and D or L forms follow the SMILES beside them. ξ: configuration not given here. *: point of attachment. Cbz = O=C(OCc1ccccc1)*; ξK = NCCCCC(N)C(=O)O

Tested on: BDF1 mice, P388 leukemia ip, median survival T/C
Test: NCI In Vivo Anticancer Drug Screen. Data for tumor model P388 Leukemia (intraperitoneal) in B6D2F1 (BDF1) mice
Settings: endpoint: median survival time, higher = longer survival
How it was run: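 Compound-treated tumour-bearing mice were compared with vehicle-treated controls. Survival was recorded, and the value is the treated-group measurement divided by the control-group measurement (T/C).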

[1] = dose: 50.0 mg/kg/injection, schedule: Q04DX003 (ip), vehicle: saline
[2] = dose: 100.0 mg/kg/injection, schedule: Q04DX003 (ip), vehicle: saline
[3] = dose: 200.0 mg/kg/injection, schedule: Q04DX003 (ip), vehicle: saline
[4] = dose: 100.0 mg/kg/injection, schedule: Q04DX003 (ip), vehicle: saline with Tween-80
[5] = dose: 200.0 mg/kg/injection, schedule: Q04DX003 (ip), vehicle: saline with Tween-80
[6] = dose: 50.0 mg/kg/injection, schedule: Q01DX009 (ip), vehicle: saline with Tween-80

N#[N+]c1cnc([O-])[nH]c1=O
T/C (dose: 1.25 mg/kg/injection, schedule: Q01DX010 (ip), vehicle: saline): 175 % of control
T/C (dose: 2.5 mg/kg/injection, schedule: Q01DX010 (ip), vehicle: saline): 185 % of control
T/C (dose: 5.0 mg/kg/injection, schedule: Q01DX010 (ip), vehicle: saline): 172 % of control and 210 % of control
T/C (dose: 10.0 mg/kg/injection, schedule: Q01DX010 (ip), vehicle: saline): 240 % of control and 177 % of control

O=S(=O)(O)c1cc(O)c2cc(Nc3ccccc3)ccc2c1
T/C [1]: 104 % of control
T/C [2]: 113 % of control
T/C [3]: 109 % of control

COc1ccc([I+]c2ccc(OC)cc2)cc1
T/C (dose: 1.56 mg/kg/injection, schedule: Q01DX009 (ip), vehicle: saline): 100 % of control
T/C (dose: 3.13 mg/kg/injection, schedule: Q01DX009 (ip), vehicle: saline): 100 % of control
T/C (dose: 6.25 mg/kg/injection, schedule: Q01DX009 (ip), vehicle: saline): 109 % of control
T/C (dose: 12.5 mg/kg/injection, schedule: Q04DX003 (ip), vehicle: saline sonified): 100 % of control
T/C (dose: 25.0 mg/kg/injection, schedule: Q04DX003 (ip), vehicle: saline sonified): 100 % of control
T/C (dose: 50.0 mg/kg/injection, schedule: Q04DX003 (ip), vehicle: saline sonified): 100 % of control

CCCCN(CCCC)c1ccc(/C=C/c2ccnc3ccccc23)cc1
T/C (dose: 100.0 mg/kg/injection, schedule: Q01DX009 (sc), vehicle: olive oil, sesame oil, peanut oil): 88 % of control
T/C (dose: 100.0 mg/kg/injection, schedule: Q04DX003 (sc), vehicle: olive oil, sesame oil, peanut oil): 88 % of control and 95 % of control
T/C (dose: 200.0 mg/kg/injection, schedule: Q01DX009 (sc), vehicle: olive oil, sesame oil, peanut oil): 88 % of control
T/C (dose: 200.0 mg/kg/injection, schedule: Q04DX003 (sc), vehicle: olive oil, sesame oil, peanut oil): 92 % of control and 95 % of control
T/C (dose: 400.0 mg/kg/injection, schedule: Q01DX009 (sc), vehicle: olive oil, sesame oil, peanut oil): 92 % of control
T/C (dose: 400.0 mg/kg/injection, schedule: Q04DX003 (sc), vehicle: olive oil, sesame oil, peanut oil): 92 % of control and 95 % of control

O=[n+]1c2ccccc2n([O-])c2ccccc21.[Cl][Cu][Cl]
T/C (dose: 6.25 mg/kg/injection, schedule: Q04DX003 (ip), vehicle: saline with Tween-80): 101 % of control
T/C (dose: 12.5 mg/kg/injection, schedule: Q04DX003 (ip), vehicle: saline with Tween-80): 116 % of control

COC(=O)[C@@H]1c2cc3c(c(O)c2[C@@H](OC2OC(C)C(OC)C(C)(OC)C2OC)C[C@]1(C)O)C(=O)c1c(O)cc2c(c1C3=O)O[C@H]1O[C@]2(C)[C@H](O)[C@@H](N(C)C)[C@@H]1O (stereo partly specified)
T/C (dose: 0.13 mg/kg/injection, schedule: Q01DX010 (ip), vehicle: saline): 113 % of control
T/C (dose: 0.19 mg/kg/injection, schedule: Q01DX010 (ip), vehicle: saline): 154 % of control
T/C (dose: 0.25 mg/kg/injection, schedule: Q01DX009 (sc), vehicle: saline): 100 % of control
T/C (dose: 0.25 mg/kg/injection, schedule: Q01DX010 (ip), vehicle: saline): 109 % of control
T/C (dose: 0.38 mg/kg/injection, schedule: Q01DX010 (ip), vehicle: saline): 150 % of control
T/C (dose: 0.5 mg/kg/injection, schedule: Q01DX009 (sc), vehicle: saline): 100 % of control
T/C (dose: 0.75 mg/kg/injection, schedule: Q01DX001 (sc), vehicle: saline): 100 % of control
T/C (dose: 1.0 mg/kg/injection, schedule: Q01DX009 (ip), vehicle: saline): 109 % of control
T/C (dose: 1.0 mg/kg/injection, schedule: Q01DX009 (sc), vehicle: saline): 100 % of control
T/C (dose: 1.0 mg/kg/injection, schedule: Q01DX010 (ip), vehicle: saline): 155 % of control
T/C (dose: 1.5 mg/kg/injection, schedule: Q01DX001 (sc), vehicle: saline): 100 % of control
T/C (dose: 2.0 mg/kg/injection, schedule: Q01DX009 (ip), vehicle: saline): 100 % of control
T/C (dose: 2.0 mg/kg/injection, schedule: Q01DX009 (oral), vehicle: saline): 100 % of control
T/C (dose: 2.0 mg/kg/injection, schedule: Q01DX009 (sc), vehicle: saline): 100 % of control
T/C (dose: 2.16 mg/kg/injection, schedule: Q04DX003 (ip), vehicle: water): 95 % of control
T/C (dose: 3.0 mg/kg/injection, schedule: Q01DX001 (sc), vehicle: saline): 100 % of control
T/C (dose: 3.0 mg/kg/injection, schedule: Q04DX003 (ip), vehicle: water): 107 % of control
T/C (dose: 4.0 mg/kg/injection, schedule: Q01DX009 (ip), vehicle: saline): 100 % of control
T/C (dose: 4.0 mg/kg/injection, schedule: Q01DX009 (oral), vehicle: saline): 100 % of control
T/C (dose: 4.0 mg/kg/injection, schedule: Q01DX009 (sc), vehicle: saline): 104 % of control
T/C (dose: 5.0 mg/kg/injection, schedule: Q01DX001 (oral), vehicle: saline): 100 % of control
T/C (dose: 6.0 mg/kg/injection, schedule: Q01DX001 (sc), vehicle: saline): 100 % of control
T/C (dose: 8.0 mg/kg/injection, schedule: Q01DX009 (oral), vehicle: saline): 100 % of control
T/C (dose: 10.0 mg/kg/injection, schedule: Q01DX001 (oral), vehicle: saline): 100 % of control
T/C (dose: 12.0 mg/kg/injection, schedule: Q01DX001 (sc), vehicle: saline): 100 % of control
T/C (dose: 16.0 mg/kg/injection, schedule: Q01DX009 (oral), vehicle: saline): 100 % of control
T/C (dose: 20.0 mg/kg/injection, schedule: Q01DX001 (oral), vehicle: saline): 100 % of control
T/C (dose: 40.0 mg/kg/injection, schedule: Q01DX001 (oral), vehicle: saline): 100 % of control
T/C (dose: 7.0 micrograms/kg/injection, schedule: Q01DX010 (ip), vehicle: saline): 110 % of control
T/C (dose: 15.0 micrograms/kg/injection, schedule: Q01DX010 (ip), vehicle: saline): 90 % of control
T/C (dose: 30.0 micrograms/kg/injection, schedule: Q01DX010 (ip), vehicle: saline): 110 % of control

O=C1CCC23/C=C/C(=O)NCCCCNCCCNC(=O)/C=C/c4ccc(c2c4)OC3C1 (stereo unspecified)
T/C (dose: 50.0 mg/kg/injection, schedule: Q04DX003 (ip), vehicle: saline with Tween-80): 105 % of control
T/C [4]: 105 % of control
T/C [5]: 105 % of control

O=C(c1ccccc1)C1(Br)CCCCC1
T/C (dose: 75.0 mg/kg/injection, schedule: Q01DX009 (ip), vehicle: Klucel (hydroxypropylcellulose) (HPC)): 104 % of control
T/C (dose: 100.0 mg/kg/injection, schedule: Q01DX001 (ip), vehicle: Klucel (hydroxypropylcellulose) (HPC)): 100 % of control
T/C (dose: 100.0 mg/kg/injection, schedule: Q04DX003 (ip), vehicle: Klucel (hydroxypropylcellulose) (HPC)): 109 % of control
T/C (dose: 150.0 mg/kg/injection, schedule: Q01DX009 (ip), vehicle: Klucel (hydroxypropylcellulose) (HPC)): 95 % of control
T/C (dose: 200.0 mg/kg/injection, schedule: Q01DX001 (ip), vehicle: Klucel (hydroxypropylcellulose) (HPC)): 104 % of control
T/C (dose: 200.0 mg/kg/injection, schedule: Q04DX003 (ip), vehicle: Klucel (hydroxypropylcellulose) (HPC)): 104 % of control
T/C (dose: 300.0 mg/kg/injection, schedule: Q01DX009 (ip), vehicle: Klucel (hydroxypropylcellulose) (HPC)): 86 % of control
T/C (dose: 400.0 mg/kg/injection, schedule: Q01DX001 (ip), vehicle: Klucel (hydroxypropylcellulose) (HPC)): 104 % of control
T/C (dose: 400.0 mg/kg/injection, schedule: Q04DX003 (ip), vehicle: Klucel (hydroxypropylcellulose) (HPC)): 109 % of control

CCCCNC(C)(C)C(=O)c1ccco1
T/C [4]: 86 % of control
T/C [5]: 100 % of control

NCC(=O)NC(CCCCNC(=O)OCc1ccccc1)C(=O)O (stereo unspecified) (H-Gly-[ξK](Cbz)-OH)
T/C (dose: 12.5 mg/kg/injection, schedule: Q01DX005 (ip), vehicle: saline with Tween-80): 106 % of control
T/C (dose: 25.0 mg/kg/injection, schedule: Q01DX005 (ip), vehicle: saline with Tween-80): 104 % of control

CCOc1c(Cl)cc(Cl)cc1C(c1ccc(Cl)cc1S(=O)(=O)O)c1cc(Cl)cc(Cl)c1OCC
T/C (dose: 25.0 mg/kg/injection, schedule: Q01DX009 (ip), vehicle: saline with Tween-80): 108 % of control
T/C [6]: 116 % of control

CCOC(=O)c1nc(NC)sc1N
T/C (dose: 25.0 mg/kg/injection, schedule: Q04DX003 (ip), vehicle: saline): 97 % of control
T/C [1]: 100 % of control
T/C [2]: 105 % of control
T/C [3]: 96 % of control

CCCCCCCCCCCC(=O)Oc1c(Cl)c(Cl)c(C#N)c(Cl)c1Cl
T/C [6]: 94 % of control
T/C (dose: 200.0 mg/kg/injection, schedule: Q01DX009 (ip), vehicle: saline with Tween-80): 86 % of control
